± gives the expanded uncertainty stated by the source.
Experiment: xn = mol fraction of the nth substance listed
Conditions: 101 kPa, Liquid; for viscosity: Capillary tube (Ostwald / Ubbelohde) method

CCCCBr [1-bromobutane] + O=[N+]([O-])c1ccccc1
Conditions | mass density, 293.15 K [kg/m3] | mass density, 298.15 K [kg/m3] | mass density, 303.15 K [kg/m3] | mass density, 308.15 K [kg/m3] | viscosity, 293.15 K [mPa·s] | viscosity, 298.15 K [mPa·s] | viscosity, 303.15 K [mPa·s] | viscosity, 308.15 K [mPa·s]
x2 = 0.123 | 1270.9 ± 1.4 | 1263.5 ± 1.4 | 1256.5 ± 1.4 | 1249 ± 1.4 | 0.7256 ± 0.0071 | 0.6851 ± 0.0067 | 0.6486 ± 0.0064 | 0.615 ± 0.0061
x2 = 0.2445 | 1262.8 ± 1.4 | 1256.6 ± 1.4 | 1249.8 ± 1.4 | 1242.4 ± 1.3 | 0.8243 ± 0.0079 | 0.7761 ± 0.0075 | 0.7321 ± 0.0071 | 0.692 ± 0.0068
x2 = 0.3645 | 1253.7 ± 1.4 | 1247.1 ± 1.4 | 1240.8 ± 1.3 | 1234.3 ± 1.3 | 0.9397 ± 0.0089 | 0.8811 ± 0.0084 | 0.828 ± 0.0079 | 0.7802 ± 0.0075
x2 = 0.424 | 1249.7 ± 1.4 | 1244 ± 1.3 | 1238 ± 1.3 | 1230.7 ± 1.3 | 0.9936 ± 0.0094 | 0.9308 ± 0.0088 | 0.8743 ± 0.0083 | 0.8225 ± 0.0079
x2 = 0.542 | 1240.8 ± 1.3 | 1234.4 ± 1.3 | 1228.2 ± 1.3 | 1222.2 ± 1.3 | 1.131 ± 0.01 | 1.055 ± 0.0099 | 0.986 ± 0.0093 | 0.925 ± 0.0088
x2 = 0.6585 | 1229.4 ± 1.3 | 1223.8 ± 1.3 | 1218.5 ± 1.3 | 1212.4 ± 1.3 | 1.281 ± 0.012 | 1.19 ± 0.011 | 1.109 ± 0.01 | 1.037 ± 0.0097
x2 = 0.7737 | 1220.6 ± 1.3 | 1214.7 ± 1.3 | 1209.9 ± 1.2 | 1205.1 ± 1.2 | 1.477 ± 0.013 | 1.364 ± 0.013 | 1.266 ± 0.012 | 1.18 ± 0.011
x2 = 0.8875 | 1211.5 ± 1.3 | 1206.6 ± 1.2 | 1201.6 ± 1.2 | 1196 ± 1.2 | 1.703 ± 0.015 | 1.566 ± 0.014 | 1.447 ± 0.013 | 1.34 ± 0.012
x2 = 0.9439 | 1206.7 ± 1.2 | 1201.6 ± 1.2 | 1196.5 ± 1.2 | 1191.2 ± 1.2 | 1.835 ± 0.017 | 1.682 ± 0.015 | 1.548 ± 0.014 | 1.43 ± 0.013

CCCCBr [1-bromobutane] + CC1CCCCC1
Conditions | mass density, 293.15 K [kg/m3] | mass density, 298.15 K [kg/m3] | mass density, 303.15 K [kg/m3] | mass density, 308.15 K [kg/m3] | viscosity, 293.15 K [mPa·s] | viscosity, 298.15 K [mPa·s] | viscosity, 303.15 K [mPa·s] | viscosity, 308.15 K [mPa·s]
x2 = 0.1014 | 1218.7 ± 1.3 | 1212.2 ± 1.3 | 1206.3 ± 1.3 | 1198.2 ± 1.2 | 0.6398 ± 0.0063 | 0.6033 ± 0.006 | 0.5754 ± 0.0058 | 0.5463 ± 0.0055
x2 = 0.1535 | 1187.3 ± 1.2 | 1180.4 ± 1.2 | 1174.2 ± 1.2 | 1167.5 ± 1.2 | 0.6402 ± 0.0063 | 0.6034 ± 0.006 | 0.5745 ± 0.0058 | 0.5458 ± 0.0055
x2 = 0.2607 | 1129.8 ± 1 | 1123 ± 1 | 1118.5 ± 1 | 1111 ± 1 | 0.6441 ± 0.0064 | 0.6066 ± 0.006 | 0.5762 ± 0.0058 | 0.5462 ± 0.0055
x2 = 0.372 | 1071 ± 0.9 | 1064.8 ± 0.9 | 1059.4 ± 0.9 | 1053.2 ± 0.9 | 0.6465 ± 0.0064 | 0.6104 ± 0.0061 | 0.578 ± 0.0058 | 0.5479 ± 0.0055
x2 = 0.4293 | 1041 ± 0.8 | 1035.5 ± 0.8 | 1029.9 ± 0.8 | 1024.4 ± 0.8 | 0.6517 ± 0.0064 | 0.6152 ± 0.0061 | 0.5826 ± 0.0058 | 0.5516 ± 0.0056
x2 = 0.5473 | 978.8 ± 0.8 | 973.2 ± 0.8 | 967.8 ± 0.8 | 962.5 ± 0.8 | 0.6581 ± 0.0065 | 0.62 ± 0.0062 | 0.5854 ± 0.0059 | 0.554 ± 0.0056
x2 = 0.608 | 946.5 ± 0.8 | 941.2 ± 0.8 | 935.8 ± 0.8 | 930.7 ± 0.9 | 0.6622 ± 0.0065 | 0.6235 ± 0.0062 | 0.5882 ± 0.0059 | 0.5561 ± 0.0056
x2 = 0.7979 | 858.3 ± 1 | 853.5 ± 1 | 849 ± 1 | 843.8 ± 1 | 0.6877 ± 0.0067 | 0.6457 ± 0.0064 | 0.6074 ± 0.0061 | 0.5721 ± 0.0058
x2 = 0.8639 | 830 ± 1 | 825.8 ± 1.1 | 821.8 ± 1.1 | 816.5 ± 1.1 | 0.6993 ± 0.0068 | 0.6558 ± 0.0065 | 0.6166 ± 0.0061 | 0.5806 ± 0.0058
